Experimental data reported in PubChem BioAssay (NCI).
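Tested at 5 concentrations; 48 h exposure; 96-well plates; endpoints linearly interpolated, else capped at highest concentration. GI50 marks 50% less growth. At the TGI there is no net growth.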

Legend:
Experiment in all cases: NCI-60 cell line screen, 48 h
NCI-H522 lung = test system: NCI-H522 lung
NCI-H23 lung = test system: NCI-H23 lung
SF-295 CNS = test system: SF-295 CNS
EKVX NSCLC = test system: EKVX NSCLC
SK-MEL-5 melanoma = test system: SK-MEL-5 melanoma
786-0 renal = test system: 786-0 renal
IGROV1 ovarian = test system: IGROV1 ovarian
UO-31 renal = test system: UO-31 renal
PC-3 prostate = test system: PC-3 prostate
CAKI-1 renal = test system: CAKI-1 renal
HL-60(TB) leukemia = test system: HL-60(TB) leukemia
HCT-15 colon = test system: HCT-15 colon
OVCAR-4 ovarian = test system: OVCAR-4 ovarian
HOP-92 NSCLC = test system: HOP-92 NSCLC
SK-MEL-28 melanoma = test system: SK-MEL-28 melanoma
HT29 colon = test system: HT29 colon
HOP-62 NSCLC = test system: HOP-62 NSCLC
MDA-MB-231 breast = test system: MDA-MB-231 breast
K-562 leukemia = test system: K-562 leukemia
HCC-2998 colon = test system: HCC-2998 colon
OVCAR-3 ovarian = test system: OVCAR-3 ovarian
COLO 205 colon = test system: COLO 205 colon
SK-MEL-2 melanoma = test system: SK-MEL-2 melanoma
MDA-MB-435 = test system: MDA-MB-435
UACC-62 melanoma = test system: UACC-62 melanoma
SK-OV-3 ovarian = test system: SK-OV-3 ovarian
NCI/ADR-RES ovarian = test system: NCI/ADR-RES ovarian
SF-539 CNS = test system: SF-539 CNS
DU-145 prostate = test system: DU-145 prostate
NCI-H460 lung = test system: NCI-H460 lung
NCI-H226 lung = test system: NCI-H226 lung
ACHN renal = test system: ACHN renal
SNB-75 CNS = test system: SNB-75 CNS
MALME-3M melanoma = test system: MALME-3M melanoma
LOX IMVI melanoma = test system: LOX IMVI melanoma
SNB-19 CNS = test system: SNB-19 CNS
A549 NSCLC = test system: A549 NSCLC
T-47D breast = test system: T-47D breast
RXF 393 renal = test system: RXF 393 renal
UACC-257 melanoma = test system: UACC-257 melanoma
RPMI-8226 leukemia = test system: RPMI-8226 leukemia
SF-268 CNS = test system: SF-268 CNS
SR leukemia = test system: SR leukemia
OVCAR-8 ovarian = test system: OVCAR-8 ovarian
U251 CNS = test system: U251 CNS
HS 578T breast = test system: HS 578T breast
TK-10 renal = test system: TK-10 renal
SW-620 colon = test system: SW-620 colon
CCRF-CEM leukemia = test system: CCRF-CEM leukemia
MOLT-4 leukemia = test system: MOLT-4 leukemia
M14 melanoma = test system: M14 melanoma
KM12 colon = test system: KM12 colon
A498 renal = test system: A498 renal
BT-549 breast = test system: BT-549 breast
HCT-116 colon = test system: HCT-116 colon
MCF7 breast = test system: MCF7 breast
SN12C renal = test system: SN12C renal
OVCAR-5 ovarian = test system: OVCAR-5 ovarian

`N#CC[C@H](C1CCCC1)n1cc(-c2ncnc3[nH]ccc23)cn1` gave a GI50 (NCI-H522 lung) of 21 µM, a TGI (NCI-H522 lung) of 57.9 µM and a GI50 (NCI-H23 lung) of 19.6 µM. It also gave a TGI (NCI-H23 lung) of 75.7 µM, a GI50 (SF-295 CNS) of 19.4 µM and a TGI (SF-295 CNS) of 51.4 µM. The GI50 (EKVX NSCLC) was 14.9 µM, the TGI (EKVX NSCLC) was > 83.7 µM and the GI50 (SK-MEL-5 melanoma) was 17.2 µM. The TGI (SK-MEL-5 melanoma) was 49 µM, the GI50 (786-0 renal) was 12.9 µM and the TGI (786-0 renal) was > 91.3 µM. The GI50 (IGROV1 ovarian) was 34 µM, the TGI (IGROV1 ovarian) was > 100 µM and the GI50 (UO-31 renal) was 4.53 µM. The TGI (UO-31 renal) was 82 µM, the GI50 (PC-3 prostate) was 35.2 µM and the TGI (PC-3 prostate) was > 100 µM. The GI50 (CAKI-1 renal) was 7.91 µM, the TGI (CAKI-1 renal) was > 100 µM and the GI50 (HL-60(TB) leukemia) was 22.7 µM. The TGI (HL-60(TB) leukemia) was 60.6 µM, the GI50 (HCT-15 colon) was 26.6 µM and the TGI (HCT-15 colon) was > 100 µM. The GI50 (OVCAR-4 ovarian) was 20.4 µM, the TGI (OVCAR-4 ovarian) was > 79.1 µM and the GI50 (HOP-92 NSCLC) was 6.81 µM. For the same molecule, the TGI (HOP-92 NSCLC) was > 100 µM, the GI50 (SK-MEL-28 melanoma) was 31.8 µM and the TGI (SK-MEL-28 melanoma) was > 100 µM. For the same molecule, the GI50 (HT29 colon) was 19.7 µM, the TGI (HT29 colon) was 41.5 µM and the GI50 (HOP-62 NSCLC) was 17.2 µM. For the same molecule, the TGI (HOP-62 NSCLC) was > 100 µM, the GI50 (MDA-MB-231 breast) was 23.9 µM and the TGI (MDA-MB-231 breast) was > 100 µM. The GI50 (K-562 leukemia) was 22.2 µM, the TGI (K-562 leukemia) was > 100 µM and the GI50 (HCC-2998 colon) was 20.6 µM. For the same molecule, the TGI (HCC-2998 colon) was > 91.7 µM, the GI50 (OVCAR-3 ovarian) was 24.2 µM and the TGI (OVCAR-3 ovarian) was > 67.3 µM. The GI50 (COLO 205 colon) was 24.6 µM, the TGI (COLO 205 colon) was 67.1 µM and the GI50 (SK-MEL-2 melanoma) was 30.5 µM. For the same molecule, the TGI (SK-MEL-2 melanoma) was 78.2 µM, the GI50 (MDA-MB-435) was 26.4 µM and the TGI (MDA-MB-435) was > 93.2 µM. For the same molecule, the GI50 (UACC-62 melanoma) was 37 µM, the TGI (UACC-62 melanoma) was > 100 µM and the GI50 (SK-OV-3 ovarian) was 24.7 µM. For the same molecule, the TGI (SK-OV-3 ovarian) was > 88 µM, the GI50 (NCI/ADR-RES ovarian) was 19.4 µM and the TGI (NCI/ADR-RES ovarian) was > 100 µM. The GI50 (SF-539 CNS) was 16.7 µM, the TGI (SF-539 CNS) was 62.7 µM and the GI50 (DU-145 prostate) was 19.3 µM. For the same molecule, the TGI (DU-145 prostate) was > 100 µM, the GI50 (NCI-H460 lung) was 14.4 µM and the TGI (NCI-H460 lung) was > 100 µM. The GI50 (NCI-H226 lung) was 9.28 µM, the TGI (NCI-H226 lung) was > 92.5 µM and the GI50 (ACHN renal) was 23.3 µM. For the same molecule, the TGI (ACHN renal) was > 100 µM, the GI50 (SNB-75 CNS) was 3.3 µM and the TGI (SNB-75 CNS) was > 61.8 µM. The GI50 (MALME-3M melanoma) was 34.1 µM, the TGI (MALME-3M melanoma) was > 100 µM and the GI50 (LOX IMVI melanoma) was 20.9 µM. The TGI (LOX IMVI melanoma) was > 100 µM, the GI50 (SNB-19 CNS) was 35.2 µM and the TGI (SNB-19 CNS) was > 100 µM. For the same molecule, the GI50 (A549 NSCLC) was 30.1 µM, the TGI (A549 NSCLC) was > 100 µM and the GI50 (T-47D breast) was 23.8 µM. The TGI (T-47D breast) was > 91.1 µM, the GI50 (RXF 393 renal) was 4.06 µM and the TGI (RXF 393 renal) was 27.2 µM. For the same molecule, the GI50 (UACC-257 melanoma) was 44.2 µM, the TGI (UACC-257 melanoma) was > 100 µM and the GI50 (RPMI-8226 leukemia) was 36 µM. The TGI (RPMI-8226 leukemia) was > 100 µM, the GI50 (SF-268 CNS) was 16.8 µM and the TGI (SF-268 CNS) was > 77.9 µM. It also gave a GI50 (SR leukemia) of 4.04 µM, a TGI (SR leukemia) of 41.6 µM and a GI50 (OVCAR-8 ovarian) of 30.3 µM. For the same molecule, the TGI (OVCAR-8 ovarian) was > 100 µM, the GI50 (U251 CNS) was 32.5 µM and the TGI (U251 CNS) was > 100 µM. For the same molecule, the GI50 (HS 578T breast) was 5.19 µM, the TGI (HS 578T breast) was 69.9 µM and the GI50 (TK-10 renal) was 13.2 µM. The TGI (TK-10 renal) was > 100 µM, the GI50 (SW-620 colon) was 12.5 µM and the TGI (SW-620 colon) was > 96.6 µM. The GI50 (CCRF-CEM leukemia) was 29.1 µM, the TGI (CCRF-CEM leukemia) was > 100 µM and the GI50 (MOLT-4 leukemia) was 20.7 µM. The TGI (MOLT-4 leukemia) was > 78.8 µM, the GI50 (M14 melanoma) was 30.3 µM and the TGI (M14 melanoma) was > 88.6 µM. For the same molecule, the GI50 (KM12 colon) was 2.71 µM, the TGI (KM12 colon) was > 62.6 µM and the GI50 (A498 renal) was 13.3 µM. The TGI (A498 renal) was 53.8 µM, the GI50 (BT-549 breast) was 12.8 µM and the TGI (BT-549 breast) was 36 µM. For the same molecule, the GI50 (HCT-116 colon) was 20.2 µM, the TGI (HCT-116 colon) was > 100 µM and the GI50 (MCF7 breast) was 17.6 µM. The TGI (MCF7 breast) was > 86.8 µM, the GI50 (SN12C renal) was 22.1 µM and the TGI (SN12C renal) was > 100 µM. For the same molecule, the GI50 (OVCAR-5 ovarian) was 26.7 µM and the TGI (OVCAR-5 ovarian) was > 78.5 µM.
